We go through 23 compounds from patent publication US10183938B2, “Geminal substituted quinuclidine amide compounds as agonists of α-7 nicotonic acetylcholine receptors” (AXOVANT SCIENCES GMBH, priority 2014, dated 2019).

The assay has as its target human 5-HT3 serotonin receptors (Homo sapiens (Human), UniProt P46098). Briefly: [3H]BRL 43694 competition binding. Particulars: CHO cell membranes, [3H]BRL 43694, Cheng Prusoff; read-out: h-5HT3 Ki.

Where a name gives a salt, the structure may show the parent alone.

Sequence of human 5-HT3 serotonin receptors (P46098 24-478): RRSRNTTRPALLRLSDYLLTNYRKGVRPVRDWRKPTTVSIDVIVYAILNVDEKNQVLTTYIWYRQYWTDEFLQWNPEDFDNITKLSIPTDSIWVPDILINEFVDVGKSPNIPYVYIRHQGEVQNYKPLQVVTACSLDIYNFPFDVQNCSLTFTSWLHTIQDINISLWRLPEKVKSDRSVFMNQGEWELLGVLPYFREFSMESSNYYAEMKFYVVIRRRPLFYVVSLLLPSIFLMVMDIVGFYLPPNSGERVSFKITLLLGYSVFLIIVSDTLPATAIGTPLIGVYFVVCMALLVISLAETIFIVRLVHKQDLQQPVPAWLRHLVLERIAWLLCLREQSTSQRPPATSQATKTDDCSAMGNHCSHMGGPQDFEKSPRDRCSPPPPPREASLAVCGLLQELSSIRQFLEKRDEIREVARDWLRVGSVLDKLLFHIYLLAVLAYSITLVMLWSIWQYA

For `CC(C)c1cccc2cc(C(=O)N[C@@H]3C4CCN(CC4)C34CC4)sc12` [(R)-166, (R)-7-isopropyl-N-(1′-azaspiro[cyclopropane-1,2′-bicyclo[2.2.2]octan]-3′-yl)benzo[b]thiophene-2-carboxamide hydrochloride], the inhibition constant (Ki) worked out at 325 nM.

As for `O=C(N[C@@H]1C2CCN(CC2)C12CC2)c1cc2cccc(OC(F)(F)F)c2s1` [(R)-167, (R)—N-(1′-azaspiro[cyclopropane-1,2′-bicyclo[2.2.2]octan]-3′-yl)-7-(trifluoromethoxy)benzo[b]thiophene-2-carboxamide hydrochloride], the inhibitory constant (Ki) was found to be 895 nM.

Take `O=C(N[C@@H]1C2CCN(CC2)C12CC2)c1cc2ccccc2[nH]1` [(R)-170, (R)—N-(1′-azaspiro[cyclopropane-1,2′-bicyclo[2.2.2]octan]-3′-yl)-1H-indole-2-carboxamide hydrochloride]: the Ki stood at 800 nM.

In the case of `O=C(N[C@@H]1C2CCN(CC2)C12CC2)c1cc2cc(F)c(Cl)cc2s1` [(R)-172, (R)-6-chloro-5-fluoro-N-(1′-azaspiro[cyclopropane-1,2′-bicyclo[2.2.2]octan]-3′-yl)benzo[b]thiophene-2-carboxamide hydrochloride], the Ki was 4900 nM.

Regarding `COc1cc2sc(C(=O)N[C@@H]3C4CCN(CC4)C34CC4)cc2cc1F` [(R)-173, (R)-5-fluoro-6-methoxy-N-(1′-azaspiro[cyclopropane-1,2′-bicyclo[2.2.2]octan]-3′-yl)benzo[b]thiophene-2-carboxamide hydrochloride], the Ki was above 10000 nM.

Consider `O=C(N[C@@H]1C2CCN(CC2)C12CC2)c1cc2cc(F)c(Cl)c(F)c2s1` [(R)-175, (R)-6-chloro-5,7-difluoro-N-(1′-azaspiro[cyclopropane-1,2′-bicyclo[2.2.2]octan]-3′-yl)benzo[b]thiophene-2-carboxamide hydrochloride], for which the inhibitory constant (Ki) was above 10000 nM.

As to `Cc1cccc2cc(C(=O)N[C@@H]3C4CCN(CC4)C34CC4)sc12` [(R)-176, (R)-7-methyl-N-(1′-azaspiro[cyclopropane-1,2′-bicyclo[2.2.2]octan]-3′-yl)benzo[b]thiophene-2-carboxamide hydrochloride], the inhibition constant (Ki) is 130 nM.

As to `O=C(N[C@@H]1C2CCN(CC2)C12CC2)c1cc2cccc(CC(F)(F)F)c2s1` [(R)-177, (R)—N-(1′-azaspiro[cyclopropane-1,2′-bicyclo[2.2.2]octan]-3′-yl)-7-(2,2,2-trifluoroethyl)benzo[b]thiophene-2-carboxamide hydrochloride], the inhibition constant (Ki) amounted to 690 nM.

For `CN(C)c1cccc2cc(C(=O)N[C@@H]3C4CCN(CC4)C34CC4)sc12` [(R)-178, (R)-7-(dimethylamino)-N-(1′-azaspiro[cyclopropane-1,2′-bicyclo[2.2.2]octan]-3′-yl)benzo[b]thiophene-2-carboxamide hydrochloride], the Ki came out at 400 nM.

As for `O=C(N[C@@H]1C2CCN(CC2)C12CC2)c1cc2cccc(-c3nccs3)c2s1` [(R)-181, (R)—N-(1′-azaspiro[cyclopropane-1,2′-bicyclo[2.2.2]octan]-3′-yl)-7-(thiazol-2-yl)benzo[b]thiophene-2-carboxamide hydrochloride], the Ki was determined as 83 nM.

`O=C(N[C@@H]1C2CCN(CC2)C12CC2)c1ccc2oc(C3CC3)cc2c1` [(R)-183, (R)-2-cyclopropyl-N-(1′-azaspiro[cyclopropane-1,2′-bicyclo[2.2.2]octan]-3′-yl)benzofuran-5-carboxamide hydrochloride]: the Ki is above 10000 nM.

`CC(C)(C)c1cccc2cc(C(=O)N[C@@H]3C4CCN(CC4)C34CC4)sc12` [(R)-184, (R)-7-(tert-butyl)-N-(1′-azaspiro[cyclopropane-1,2′-bicyclo[2.2.2]octan]-3′-yl)benzo[b]thiophene-2-carboxamide hydrochloride]: the Ki is 110 nM.

Take `O=C(N[C@@H]1C2CCN(CC2)C12CC2)c1cc2cccc(-c3ccccc3)c2s1` [(R)-186, (R)-7-phenyl-N-(1′-azaspiro[cyclopropane-1,2′-bicyclo[2.2.2]octan]-3′-yl)benzo[b]thiophene-2-carboxamide hydrochloride]: the Ki came out at 30 nM.

With `CC1(c2cccc3cc(C(=O)N[C@@H]4C5CCN(CC5)C45CC5)sc23)CC1` [(R)-188, (R)-7-(1-methylcyclopropyl)-N-(1′-azaspiro[cyclopropane-1,2′-bicyclo[2.2.2]octan]-3′-yl)benzo[b]thiophene-2-carboxamide-hydrochloride], the inhibition constant Ki was found to be 200 nM.

For the compound `CCOc1ccc2cc(C(=O)N[C@@H]3C4CCN(CC4)C34CC4)sc2c1` [(R)-189, (R)-6-ethoxy-N-(1′-azaspiro[cyclopropane-1,2′-bicyclo[2.2.2]octan]-3′-yl)benzo[b]thiophene-2-carboxamide hydrochloride], the Ki is above 10000 nM.

For the compound `CCOc1cccc2cc(C(=O)N[C@@H]3C4CCN(CC4)C34CC4)sc12` [(R)-190, (R)-7-ethoxy-N-(1′-azaspiro[cyclopropane-1,2′-bicyclo[2.2.2]octan]-3′-yl)benzo[b]thiophene-2-carboxamide hydrochloride], the Ki came to 290 nM.

As for `CC(C)Oc1cccc2cc(C(=O)N[C@@H]3C4CCN(CC4)C34CC4)sc12` [(R)-191, (R)-7-isopropoxy-N-(1′-azaspiro[cyclopropane-1,2′-bicyclo[2.2.2]octan]-3′-yl)benzo[b]thiophene-2-carboxamide hydrochloride], the Ki turned out to be 160 nM.

Turning to `COc1c(Cl)ccc2cc(C(=O)N[C@@H]3C4CCN(CC4)C34CC4)sc12` [(R)-192, (R)-6-chloro-7-methoxy-N-(1′-azaspiro[cyclopropane-1,2′-bicyclo[2.2.2]octan]-3′-yl)benzo[b]thiophene-2-carboxamide hydrochloride], the Ki is above 10000 nM.

Turning to `COc1c(C)ccc2cc(C(=O)N[C@@H]3C4CCN(CC4)C34CC4)sc12` [(R)-193, (R)-7-methoxy-6-methyl-N-(1′-azaspiro[cyclopropane-1,2′-bicyclo[2.2.2]octan]-3′-yl)benzo[b]thiophene-2-carboxamide hydrochloride], the Ki was 6000 nM.

In the case of `O=C(N[C@@H]1C2CCN(CC2)C12CC2)c1n[nH]c2ccccc12` [(R)-194, (R)—N-(1′-azaspiro[cyclopropane-1,2′-bicyclo[2.2.2]octan]-3′-yl)-1H-indazole-3-carboxamide hydrochloride], the inhibition constant (Ki) came out at 79 nM.

For `Cc1ccc2cc(C(=O)N[C@@H]3C4CCN(CC4)C34CC4)sc2c1C1CC1` [(R)-196, (R)-7-cyclopropyl-6-methyl-N-(1′-azaspiro[cyclopropane-1,2′-bicyclo[2.2.2]octan]-3′-yl)benzo[b]thiophene-2-carboxamide hydrochloride], the Ki worked out at 610 nM.

As for `COc1c(F)ccc2cc(C(=O)N[C@@H]3C4CCN(CC4)C34CC4)sc12` [(R)-197, (R)-6-fluoro-7-methoxy-N-(1′-azaspiro[cyclopropane-1,2′-bicyclo[2.2.2]octan]-3′-yl)benzo[b]thiophene-2-carboxamide hydrochloride], the Ki was found to be 2800 nM.

With `Cc1ccc2cc(C(=O)N[C@@H]3C4CCN(CC4)C34CC4)sc2c1C#N` [(R)-198, (R)-7-cyano-6-methyl-N-(1′-azaspiro[cyclopropane-1,2′-bicyclo[2.2.2]octan]-3′-yl)benzo[b]thiophene-2-carboxamide hydrochloride], the Ki was above 10000 nM.
